Data reported in publication PMC5732813, “Novel piplartine-containing ruthenium complexes: synthesis, cell growth inhibition, apoptosis induction and ROS production on HCT116 cells” (Oncotarget, 2017).
Where “and” joins values, the source holds several entries; their conditions need not be identical. Equal entries are not always repeated. Where two headings read alike, the source gives them in different places.

Key:
[1] = system: cancer multicellular spheroids formed from HCT116 cells; assay: 3D multicellular spheroids culture, alamar blue assay; type: cell-based, human; conditions: for more potent than metal-free piplartine: 3D spheroids of HCT116, IC50 72 h
Procedure: (§1) Cell viability was quantified using the alamar blue assay, according to Ahmed et al.. Cells were inserted in 96-well plates for all experiments (7 x 10^4 cells/mL for adherent cells or 3 x 10^5 cells/mL for suspended cells in 100 μL of medium). […] Negative controls received the vehicle that was used for diluting the compounds tested.
HCT116 cells were cultivated in 3D multicellular spheroids. Briefly, 100 μL of a solution of cells (0.5 x 10^6 cells/mL) were inserted in 96-well plate with a cell-repellent surface (Greiner Bio-One, Kremsmünster, Austria) and cultured in RPMI 1640 medium with 10% fetal bovine serum, 2 mM glutamine, 3% matrigel (BD Biosciences, San Jose, CA, EUA) and 50 μg/mL gentamycin at 37°C with 5% CO2. […] Negative control received the vehicle that was used for diluting the compounds tested. In the end of the experiment, morphological changes were examined by light microscopy (Olympus BX41, Tokyo, Japan) using Image-Pro software (Media Cybernetics, Inc. Silver Spring, USA) and the cell viability was determined by alamar blue assay as described above.

[2] = system: WT SV40 MEF (wild-type immortalized mouse embryonic fibroblast); assay: Cytotoxic activity, alamar blue assay, WT SV40 MEF; type: cell-based
Description: (§2) HCT116 (human colon carcinoma), HepG2 (human hepatocellular carcinoma), HSC-3 (human oral squamous cell carcinoma), SCC-4 (human oral squamous cell carcinoma), SCC-9 (human oral squamous cell carcinoma), HL-60 (human promyelocytic leukemia), K-562 (human chronic myelogenous leukemia), B16-F10 (murine melanoma), MRC-5 (human lung fibroblast), WT SV40 MEF (wild-type immortalized mouse embryonic fibroblast) and BAD KO SV40 MEF (BAD gene knockout immortalized mouse embryonic fibroblast) cell lines were obtained from the American Type Culture Collection (ATCC, Manassas, VA, USA) and cultured in RPMI-1640 medium (Gibco-BRL, Gaithersburg, MD, USA) with 10% fetal bovine serum (Life, Carlsbad, CA, USA), 2 mM L-glutamine (Vetec Química Fina, Duque de Caxias, RJ, Brazil) and 50 μg/mL gentamycin (Life, Carlsbad, CA, USA). Adherent cells were collected by treatment with 0.25% trypsin EDTA solution (Gibco-BRL, Gaithersburg, MD, USA). All cell lines were cultured in flasks at 37°C in 5% CO2 and sub-cultured every 3-4 days to maintain exponential growth.
as §1

[3] = system: B16-F10 (murine melanoma); assay: Cytotoxic activity, alamar blue assay, B16-F10; type: cell-based; conditions: for more potent than metal-free piplartine: B16-F10, IC50 72h
Description: as §2, §1

[4] = system: BAD KO SV40 MEF (BAD gene knockout immortalized mouse embryonic fibroblast); assay: Cytotoxic activity, alamar blue assay, BAD KO SV40 MEF; type: cell-based
Description: as §2, §1

[5] = system: SCC-9 (human oral squamous cell carcinoma); assay: Cytotoxic activity, alamar blue assay, SCC-9; type: cell-based; conditions: for more potent than metal-free piplartine: SCC9, IC50 72h
Description: as §2, §1

HCT116 cells = assay: Internucleosomal DNA fragmentation and cell cycle distribution (DNA content, flow cytometry); type: cell-based, human
Procedure: Cells were harvested in a permeabilization solution containing 0.1% triton X-100 (Sigma Chemical Co. St Louis, MO, USA), 2 μg/mL propidium iodide (Sigma Chemical Co. St Louis, MO, USA), 0.1% sodium citrate and 100 μg/mL RNAse (Sigma Chemical Co. St Louis, MO, USA) and incubated in the dark for 15 min at room temperature.

[6] = system: HSC-3 (human oral squamous cell carcinoma); assay: Cytotoxic activity, alamar blue assay, HSC-3; type: cell-based; conditions: for more potent than metal-free piplartine: HSC3, IC50 72h
Description: as §2, §1

[7] = system: K-562 (human chronic myelogenous leukemia); assay: Cytotoxic activity, alamar blue assay, K-562; type: cell-based; conditions: for more potent than metal-free piplartine: K562, IC50 72h
Description: as §2, §1

[8] = system: SCC-4 (human oral squamous cell carcinoma); assay: Cytotoxic activity, alamar blue assay, SCC-4; type: cell-based; conditions: for more potent than metal-free piplartine: SCC4, IC50 72h
Description: as §2, §1

[9] = system: HepG2 (human hepatocellular carcinoma); assay: Cytotoxic activity, alamar blue assay, HepG2; type: cell-based; conditions: for more potent than metal-free piplartine: HepG2, IC50 72h
Description: as §2, §1

[10] = HCT116, 1 μM, 24h, mean ± S.E.M.
[11] = HCT116, 1 μM, 48h, mean ± S.E.M.
[12] = HCT116, 10 μM, 24h, mean ± S.E.M.
[13] = HCT116, 10 μM, 48h, mean ± S.E.M.
[14] = 3D spheroids of HCT116, 72 h treatment, alamar blue, read-out: IC50
[15] = WT SV40 MEF, 72 h incubation, alamar blue, read-out: IC50
[16] = BAD KO SV40 MEF, 72 h incubation, alamar blue, read-out: IC50

With COc1cccc2c1C(=O)c1c(O)c3c(c(O)c1C2=O)C[C@@](O)(C(=O)CO)C[C@@H]3O[C@H]1C[C@H](N)[C@H](O)[C@H](C)O1 [Doxorubicin] the IC50 ([1]; Homo sapiens, HCT-116, 3D spheroids of HCT116, 72 h treatment, alamar blue, read-out: IC50) was 6.3 µM, the IC50 ([2]; Mus musculus, Fibroblast, WT SV40 MEF, 72 h incubation, alamar blue, read-out: IC50) was 0.04 µM and the IC50 ([3]; Mus musculus, B16-F10, 72h of incubation, alamar blue, with 95% confidence interval) was 0.02 µM. The IC50 ([4]; Mus musculus, Fibroblast, BAD KO SV40 MEF, 72 h incubation, alamar blue, read-out: IC50) was 0.41 µM, the IC50 ([5]; Homo sapiens, SCC-9, 72h of incubation, alamar blue, with 95% confidence interval) was 2.6 µM and the “DNA content (%) G0/G1” value (HCT116 cells; [10]) was 22.1 ± 2.4%. For the same compound, the “DNA content (%) G2/M” value (HCT116 cells; [10]) was 59.0 ± 2.8 %, the “DNA content (%) Sub-G0/G1” value (HCT116 cells; [10]) was 5.2 ± 1.4% and the “DNA content (%) G0/G1” value (HCT116 cells; [11]) was 15.8 ± 2.0 %. The “DNA content (%) G2/M” value (HCT116 cells; [11]) was 49.0 ± 5.9 % and the “DNA content (%) Sub-G0/G1” value (HCT116 cells; [11]) was 21.8 ± 5.4 %.
COc1cc(/C=C/C(=O)N2CCC=CC2=O)cc(OC)c1OC [Piplartine] was tested, and the “Selectivity index (SI)” value ([6]; SI = IC50[MRC-5]/IC50[HSC-3]) was 2.3, the “Selectivity index (SI)” value ([6]; SI = IC50[PBMC]/IC50[HSC-3]) was 4.6 and the IC50 ([1]; Homo sapiens, HCT-116, 72 h) was 22.1 µM. For the same compound, the IC50 ([2]; Mus musculus, Fibroblast, 72 h) was 4.5 µM, the “Selectivity index (SI)” value ([3]; SI = IC50[MRC-5]/IC50[B16-F10]) was 1.6 and the “Selectivity index (SI)” value ([3]; SI = IC50[PBMC]/IC50[B16-F10]) was 3.2. For the same compound, the IC50 ([7]; Homo sapiens, K562, 72 h) was 18.6 µM, the “Selectivity index (SI)” value ([7]; SI = IC50[MRC-5]/IC50[K-562]) was 0.9 and the “Selectivity index (SI)” value ([7]; SI = IC50[PBMC]/IC50[K-562]) was 1.8. For the same compound, the IC50 ([4]; Mus musculus, Fibroblast, 72 h) was 4 µM, the “Selectivity index (SI)” value ([8]; SI = IC50[MRC-5]/IC50[SCC-4]) was 1.1 and the “Selectivity index (SI)” value ([8]; SI = IC50[PBMC]/IC50[SCC-4]) was 2.2. The IC50 ([9]; Homo sapiens, HepG2, 72 h) was 6.3 µM, the “Selectivity index (SI)” value ([9]; SI = IC50[MRC-5]/IC50[HepG2]) was 2.7 and the “Selectivity index (SI)” value ([9]; SI = IC50[PBMC]/IC50[HepG2]) was 5.4. For the same compound, the “Selectivity index (SI)” value ([5]; SI = IC50[MRC-5]/IC50[SCC-9]) was 1.0, the “Selectivity index (SI)” value ([5]; SI = IC50[PBMC]/IC50[SCC-9]) was 2.1 and the “DNA content (%) G0/G1” value (HCT116 cells; [12]) was 22.7 ± 0.6%. For the same compound, the “DNA content (%) G2/M” value (HCT116 cells; [12]) was 21.5 ± 2.9%, the “DNA content (%) S” value (HCT116 cells; [12]) was 21.4 ± 2.3% and the “DNA content (%) Sub-G0/G1” value (HCT116 cells; [12]) was 20.3%. The “DNA content (%) Sub-G0/G1” value (HCT116 cells; HCT116, 10 μM, 24h, mean ± S.E.M., listed as PL) was 20.3 ± 1.8 %, the “DNA content (%) G0/G1” value (HCT116 cells; [13]) was 27.0 ± 2.9 % and the “DNA content (%) G2/M” value (HCT116 cells; [13]) was 21.9 ± 0.9%. For the same compound, the “DNA content (%) S” value (HCT116 cells; [13]) was 16.4 ± 2.2%, the “DNA content (%) Sub-G0/G1” value (HCT116 cells; [13]) was 33.9% and the “DNA content (%) Sub-G0/G1” value (HCT116 cells; HCT116, 10 μM, 48h, mean ± S.E.M., listed as PL) was 33.9 ± 5.8 %.
In the case of “[Ru(piplartine)(dppb)(bipy)](PF6)2 [Complex 2]”, the “more potent than metal-free piplartine” value [6] is reported as 6 fold, the IC50 [1, 14] is reported as 8.3 µM and the “more potent than metal-free piplartine” value [1] is reported as ~2 fold. For the same compound, the IC50 [2, 15] was 6 µM, the “more potent than metal-free piplartine” value [3] was 3 fold and the “more potent than metal-free piplartine” value [7] was 3 fold. For the same compound, the IC50 [4, 16] was 4 µM, the “more potent than metal-free piplartine” value [8] was 3 fold and the “more potent than metal-free piplartine” value [9] was 3 fold. For the same compound, the “more potent than metal-free piplartine” value [5] was 2 fold and the “DNA content (%) S” value (HCT116 cells) was 18.7 ± 1.8% and 15.6 ± 1.8% and 21.2 ± 2.6% and 18.0 ± 1.3%.
“[Ru(piplartine)(dppf)(bipy)](PF6)2 [Complex 1]” was tested, and the “more potent than metal-free piplartine” value [6] was 12 fold, the “Selectivity index (SI)” value ([6]; SI = IC50[MRC-5]/IC50[HSC-3]) was 5.7 and the “Selectivity index (SI)” value ([6]; SI = IC50[PBMC]/IC50[HSC-3]) was 3.0. For the same compound, the IC50 [1, 14] was 7.3 µM, the “more potent than metal-free piplartine” value [1] was “approximately 3 fold” and the IC50 [2, 15] was 2.4 µM. For the same compound, the “more potent than metal-free piplartine” value [3] was 4 fold, the “Selectivity index (SI)” value ([3]; SI = IC50[MRC-5]/IC50[B16-F10]) was 1.2 and the “Selectivity index (SI)” value ([3]; SI = IC50[PBMC]/IC50[B16-F10]) was 0.6. The “more potent than metal-free piplartine” value [7] was 5 fold, the “Selectivity index (SI)” value ([7]; SI = IC50[MRC-5]/IC50[K-562]) was 1.0 and the “Selectivity index (SI)” value ([7]; SI = IC50[PBMC]/IC50[K-562]) was 0.5. The IC50 [4, 16] was 3.2 µM, the “more potent than metal-free piplartine” value [8] was 5 fold and the “Selectivity index (SI)” value ([8]; SI = IC50[MRC-5]/IC50[SCC-4]) was 1.1. The “Selectivity index (SI)” value ([8]; SI = IC50[PBMC]/IC50[SCC-4]) was 0.6, the “more potent than metal-free piplartine” value [9] was 4 fold and the “Selectivity index (SI)” value ([9]; SI = IC50[MRC-5]/IC50[HepG2]) was 2.0. For the same compound, the “Selectivity index (SI)” value ([9]; SI = IC50[PBMC]/IC50[HepG2]) was 1.1, the “more potent than metal-free piplartine” value [5] was 4 fold and the “Selectivity index (SI)” value ([5]; SI = IC50[MRC-5]/IC50[SCC-9]) was 0.8. For the same compound, the “Selectivity index (SI)” value ([5]; SI = IC50[PBMC]/IC50[SCC-9]) was 0.4, the “DNA content (%) G0/G1” value (HCT116 cells) was 28.6 ± 5.9% and 39.4 ± 1.8% and 30.0 ± 5.8 % and 42.5 ± 1.7% and the “DNA content (%) S” value (HCT116 cells) was 11.5 ± 2.5% and 20.1 ± 1.4% and 13.5 ± 1.5% and 21.9 ± 2.5%.
